Tested on: Vγ9Vδ2 T cells exposed to compound-loaded K562 cells
Assay: Vγ9Vδ2 T cell interferon γ ELISA with compound-loaded K562 cells
Format: cell-based, human
Settings: versus aryl amidate range 110-230 nM

Question: For `C/C(=C\CCP(=O)(OCOC(=O)c1cn(-c2ccc(F)cc2)nn1)Oc1ccccc1)CO` (stereo not shown) [Compound 25b, (E)-(((5-Hydroxy-4-methylpent-3-en-1-yl)(phenoxy)phosphoryl)oxy)methyl-1-(4-fluorophenyl)-1H-1,2,3-triazole-4-carboxylate], which “fold more active than aryl amidates (1 hour cytokine EC50)” value is on record?
Answer: more than 100 fold

Source: paper PMC11853949 (European journal of medicinal chemistry, 2025)
